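All cell lines were grown in 96-well plates and treated with compound for 48 hours. Here, GI50 denotes the concentration required for 50% inhibition of growth. TGI denotes the concentration required for complete inhibition of growth.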
Tests used:
Test in all cases: inhibition of tumour cell growth, NCI panel, 48 h
SNB-19 CNS = test system: SNB-19 CNS
SF-268 CNS = test system: SF-268 CNS
HOP-92 NSCLC = test system: HOP-92 NSCLC
SK-MEL-5 melanoma = test system: SK-MEL-5 melanoma
IGROV1 ovarian = test system: IGROV1 ovarian
MDA-MB-435 = test system: MDA-MB-435
NCI/ADR-RES ovarian = test system: NCI/ADR-RES ovarian
HS 578T breast = test system: HS 578T breast
HCC-2998 colon = test system: HCC-2998 colon
SNB-75 CNS = test system: SNB-75 CNS
OVCAR-8 ovarian = test system: OVCAR-8 ovarian
SF-295 CNS = test system: SF-295 CNS
UACC-257 melanoma = test system: UACC-257 melanoma
EKVX NSCLC = test system: EKVX NSCLC
OVCAR-3 ovarian = test system: OVCAR-3 ovarian
OVCAR-4 ovarian = test system: OVCAR-4 ovarian
SW-620 colon = test system: SW-620 colon
DU-145 prostate = test system: DU-145 prostate
MDA-MB-231 breast = test system: MDA-MB-231 breast
HCT-15 colon = test system: HCT-15 colon
UO-31 renal = test system: UO-31 renal
SR leukemia = test system: SR leukemia
SK-OV-3 ovarian = test system: SK-OV-3 ovarian
CCRF-CEM leukemia = test system: CCRF-CEM leukemia
SF-539 CNS = test system: SF-539 CNS
HCT-116 colon = test system: HCT-116 colon
RPMI-8226 leukemia = test system: RPMI-8226 leukemia
NCI-H460 lung = test system: NCI-H460 lung
K-562 leukemia = test system: K-562 leukemia
M14 melanoma = test system: M14 melanoma
NCI-H522 lung = test system: NCI-H522 lung
COLO 205 colon = test system: COLO 205 colon
HT29 colon = test system: HT29 colon
MOLT-4 leukemia = test system: MOLT-4 leukemia
BT-549 breast = test system: BT-549 breast
OVCAR-5 ovarian = test system: OVCAR-5 ovarian
MALME-3M melanoma = test system: MALME-3M melanoma
A549 NSCLC = test system: A549 NSCLC
SK-MEL-2 melanoma = test system: SK-MEL-2 melanoma
NCI-H226 lung = test system: NCI-H226 lung
LOX IMVI melanoma = test system: LOX IMVI melanoma
KM12 colon = test system: KM12 colon
SK-MEL-28 melanoma = test system: SK-MEL-28 melanoma
RXF 393 renal = test system: RXF 393 renal
MCF7 breast = test system: MCF7 breast
TK-10 renal = test system: TK-10 renal
T-47D breast = test system: T-47D breast
A498 renal = test system: A498 renal
UACC-62 melanoma = test system: UACC-62 melanoma
HOP-62 NSCLC = test system: HOP-62 NSCLC
SN12C renal = test system: SN12C renal
U251 CNS = test system: U251 CNS
786-0 renal = test system: 786-0 renal
NCI-H23 lung = test system: NCI-H23 lung
ACHN renal = test system: ACHN renal
CAKI-1 renal = test system: CAKI-1 renal
PC-3 prostate = test system: PC-3 prostate
HL-60(TB) leukemia = test system: HL-60(TB) leukemia

CC(C)C[C@H](NC(=O)CCc1cccc2ccccc12)B(O)O was tested, and the TGI (SNB-19 CNS) was greater than 100 µM, the TGI (SF-268 CNS) was 10.1 µM and the TGI (HOP-92 NSCLC) was 7.37 µM. For the same compound, the TGI (SK-MEL-5 melanoma) was 1.85 µM, the TGI (IGROV1 ovarian) was 23.8 µM and the TGI (MDA-MB-435) was 1.02 µM. For the same compound, the TGI (NCI/ADR-RES ovarian) was 11.7 µM, the TGI (HS 578T breast) was 7.4 µM and the TGI (HCC-2998 colon) was 2.62 µM. For the same compound, the TGI (SNB-75 CNS) was greater than 22.6 µM, the TGI (OVCAR-8 ovarian) was 19.6 µM and the TGI (SF-295 CNS) was 20.2 µM. For the same compound, the TGI (UACC-257 melanoma) was 3.91 µM, the TGI (EKVX NSCLC) was 64.2 µM and the TGI (OVCAR-3 ovarian) was 1.86 µM. The TGI (OVCAR-4 ovarian) was 29 µM, the TGI (SW-620 colon) was 3.26 µM and the TGI (DU-145 prostate) was greater than 65.6 µM. It also gave a TGI (MDA-MB-231 breast) of 15.2 µM, a TGI (HCT-15 colon) of 9.01 µM and a TGI (UO-31 renal) of 8.73 µM. The TGI (SR leukemia) was 2.2 µM, the TGI (SK-OV-3 ovarian) was greater than 86.4 µM and the TGI (CCRF-CEM leukemia) was […]. For the same compound, the TGI (SF-539 CNS) was 1.21 µM, the TGI (HCT-116 colon) was 2.91 µM and the TGI (RPMI-8226 leukemia) was 3.95 µM. The TGI (NCI-H460 lung) was 19.5 µM, the TGI (K-562 leukemia) was 21.4 µM and the TGI (M14 melanoma) was 3.72 µM. For the same compound, the TGI (NCI-H522 lung) was 4.95 µM, the TGI (COLO 205 colon) was 36.3 µM and the TGI (HT29 colon) was 6.27 µM. For the same compound, the TGI (MOLT-4 leukemia) was 3.86 µM, the TGI (BT-549 breast) was 2.15 µM and the TGI (OVCAR-5 ovarian) was 6.72 µM. It also gave a TGI (MALME-3M melanoma) of 5.23 µM, a TGI (A549 NSCLC) of 49.7 µM and a TGI (SK-MEL-2 melanoma) of 6.74 µM. The TGI (NCI-H226 lung) was 0.392 µM, the TGI (LOX IMVI melanoma) was 1.77 µM and the TGI (KM12 colon) was 5.4 µM. For the same compound, the TGI (SK-MEL-28 melanoma) was 4.05 µM, the TGI (RXF 393 renal) was 2.03 µM and the TGI (MCF7 breast) was greater than 52 µM. It also gave a TGI (TK-10 renal) of 12.4 µM, a TGI (T-47D breast) of 4.23 µM and a TGI (A498 renal) of 6.12 µM. For the same compound, the TGI (UACC-62 melanoma) was 5.59 µM, the TGI (HOP-62 NSCLC) was 14.3 µM and the TGI (SN12C renal) was 21 µM. The TGI (U251 CNS) was 19.6 µM, the TGI (786-0 renal) was 28.3 µM and the TGI (NCI-H23 lung) was 7.81 µM. For the same compound, the TGI (ACHN renal) was greater than 100 µM, the TGI (CAKI-1 renal) was 3.94 µM and the TGI (PC-3 prostate) was 29.3 µM.
For NC(Cc1c[nH]c2cc(F)ccc12)C(=O)O (centres undefined), the GI50 (SNB-19 CNS) was 1440 µM, the TGI (SNB-19 CNS) was greater than 2500 µM and the GI50 (SF-268 CNS) was 1270 µM. It also gave a TGI (SF-268 CNS) greater than 2500 µM, a GI50 (HOP-92 NSCLC) greater than 2500 µM and a TGI (HOP-92 NSCLC) greater than 2500 µM. It also gave a GI50 (SK-MEL-5 melanoma) of 557 µM, a TGI (SK-MEL-5 melanoma) of 1140 µM and a GI50 (MDA-MB-435) of 840 µM. The TGI (MDA-MB-435) was greater than 2500 µM, the GI50 (NCI/ADR-RES ovarian) was 890 µM and the TGI (NCI/ADR-RES ovarian) was greater than 2500 µM. The GI50 (HS 578T breast) was 1780 µM, the TGI (HS 578T breast) was greater than 2500 µM and the GI50 (HCC-2998 colon) was 1640 µM. It also gave a TGI (HCC-2998 colon) greater than 2500 µM, a GI50 (SNB-75 CNS) of 1940 µM and a TGI (SNB-75 CNS) greater than 2500 µM. For the same compound, the GI50 (OVCAR-8 ovarian) was 961 µM, the TGI (OVCAR-8 ovarian) was greater than 2500 µM and the GI50 (SF-295 CNS) was 502 µM. For the same compound, the TGI (SF-295 CNS) was greater than 2500 µM, the GI50 (UACC-257 melanoma) was 1490 µM and the TGI (UACC-257 melanoma) was greater than 2500 µM. For the same compound, the GI50 (EKVX NSCLC) was greater than 2500 µM, the TGI (EKVX NSCLC) was greater than 2500 µM and the GI50 (HL-60(TB) leukemia) was 951 µM. For the same compound, the TGI (HL-60(TB) leukemia) was greater than 2500 µM, the GI50 (OVCAR-3 ovarian) was 792 µM and the TGI (OVCAR-3 ovarian) was greater than 2500 µM. For the same compound, the GI50 (OVCAR-4 ovarian) was greater than 2500 µM, the TGI (OVCAR-4 ovarian) was greater than 2500 µM and the GI50 (SW-620 colon) was 1480 µM. It also gave a TGI (SW-620 colon) greater than 2500 µM, a GI50 (DU-145 prostate) of 903 µM and a TGI (DU-145 prostate) greater than 2500 µM. It also gave a GI50 (MDA-MB-231 breast) of 1460 µM, a TGI (MDA-MB-231 breast) greater than 2500 µM and a GI50 (HCT-15 colon) of 888 µM. The TGI (HCT-15 colon) was greater than 2500 µM, the TGI (UO-31 renal) was greater than 2500 µM and the GI50 (SR leukemia) was 1040 µM. It also gave a TGI (SR leukemia) greater than 2500 µM, a GI50 (SK-OV-3 ovarian) of 877 µM and a TGI (SK-OV-3 ovarian) greater than 2500 µM. For the same compound, the GI50 (CCRF-CEM leukemia) was 1240 µM, the TGI (CCRF-CEM leukemia) was greater than 2500 µM and the GI50 (SF-539 CNS) was 890 µM. It also gave a TGI (SF-539 CNS) greater than 2500 µM, a GI50 (HCT-116 colon) of 1030 µM and a TGI (HCT-116 colon) greater than 2500 µM. It also gave a GI50 (RPMI-8226 leukemia) greater than 2500 µM, a TGI (RPMI-8226 leukemia) greater than 2500 µM and a GI50 (NCI-H460 lung) of 768 µM. For the same compound, the TGI (NCI-H460 lung) was greater than 2500 µM, the GI50 (K-562 leukemia) was 912 µM and the TGI (K-562 leukemia) was greater than 2500 µM. It also gave a GI50 (M14 melanoma) of 951 µM, a TGI (M14 melanoma) greater than 2500 µM and a GI50 (NCI-H522 lung) of 773 µM. For the same compound, the TGI (NCI-H522 lung) was 2280 µM, the GI50 (COLO 205 colon) was 1120 µM and the TGI (COLO 205 colon) was greater than 2500 µM. It also gave a GI50 (HT29 colon) of 850 µM, a TGI (HT29 colon) greater than 2500 µM and a GI50 (MOLT-4 leukemia) of 1340 µM. It also gave a TGI (MOLT-4 leukemia) greater than 2500 µM, a GI50 (BT-549 breast) of 841 µM and a TGI (BT-549 breast) greater than 2500 µM. For the same compound, the GI50 (OVCAR-5 ovarian) was 1090 µM, the TGI (OVCAR-5 ovarian) was greater than 2500 µM and the GI50 (MALME-3M melanoma) was 859 µM. It also gave a TGI (MALME-3M melanoma) of 2320 µM, a GI50 (A549 NSCLC) of 1150 µM and a TGI (A549 NSCLC) greater than 2500 µM. For the same compound, the GI50 (SK-MEL-2 melanoma) was 1910 µM, the TGI (SK-MEL-2 melanoma) was greater than 2500 µM and the GI50 (NCI-H226 lung) was 2480 µM. It also gave a TGI (NCI-H226 lung) greater than 2500 µM, a GI50 (LOX IMVI melanoma) of 820 µM and a TGI (LOX IMVI melanoma) greater than 2500 µM. For the same compound, the GI50 (KM12 colon) was 1180 µM, the TGI (KM12 colon) was greater than 2500 µM and the GI50 (SK-MEL-28 melanoma) was 1150 µM. The TGI (SK-MEL-28 melanoma) was greater than 2500 µM, the GI50 (RXF 393 renal) was 1450 µM and the TGI (RXF 393 renal) was greater than 2500 µM. It also gave a GI50 (MCF7 breast) of 1290 µM, a TGI (MCF7 breast) greater than 2500 µM and a GI50 (TK-10 renal) greater than 2500 µM. For the same compound, the TGI (TK-10 renal) was greater than 2500 µM, the GI50 (T-47D breast) was greater than 2500 µM and the TGI (T-47D breast) was greater than 2500 µM. The GI50 (A498 renal) was greater than 2500 µM, the TGI (A498 renal) was greater than 2500 µM and the GI50 (UACC-62 melanoma) was 1700 µM. The TGI (UACC-62 melanoma) was greater than 2500 µM, the GI50 (HOP-62 NSCLC) was 961 µM and the TGI (HOP-62 NSCLC) was greater than 2500 µM. It also gave a GI50 (SN12C renal) of 1330 µM, a TGI (SN12C renal) greater than 2500 µM and a GI50 (U251 CNS) of 872 µM. It also gave a TGI (U251 CNS) greater than 2500 µM, a GI50 (786-0 renal) of 1080 µM and a TGI (786-0 renal) greater than 2500 µM. For the same compound, the GI50 (NCI-H23 lung) was 1010 µM, the TGI (NCI-H23 lung) was greater than 2500 µM and the GI50 (ACHN renal) was 1640 µM. For the same compound, the TGI (ACHN renal) was greater than 2500 µM, the TGI (CAKI-1 renal) was greater than 2500 µM and the GI50 (PC-3 prostate) was 1810 µM. It also gave a TGI (PC-3 prostate) greater than 2500 µM.
